The record followed here is patent publication US20250129370A1, “METHOD FOR REDUCING HEPATIC TRIGLYCERIDES” (ADAERATA, LIMITED PARTNERSHIP, priority 2022, published 2025).

The subject of data set [1] is mutated form of PCSK7 3′-UTR. Description: Luciferase reporter assay, miRNA target site-deleted PCSK7 3′-UTR, HEK293T cells. In kind it is cell-based, human. From the text: The interactions between the miRNAs and their probable targets on PCSK7 were explored by cloning the potential target regions in psiCHECK-2™ (Promega, USA), a luciferase reporter vector. In psiCHECK-2™, hRluc, the Renilla luciferase gene, is located upstream of the target regions of interest cloned into the psiCHECK-2™ vector downstream of the Renilla gene. The region corresponding to the 3′-UTR of PCSK7 (926-nt sequences in length) that constituted the predicted miRNA response elements was PCR-amplified and cloned downstream of the Renilla luciferase gene in the psiCHECK-2™ vector (Promega, USA). For the confirmation of whether miRNA response elements (miRNA target sites) on the 3′-UTR of PCSK7 were active and had direct interactions with the miRNAs, different mutants (plasmids) were constructed via splicing by over-hang-extension (SOEing) PCR. For miR-125a-5p and miR-143-3p, each of which has two miRNA response elements on PCSK7 3′-UTR, three different mutant constructs were built. Two constructs were made by deleting a putative miRNA target site, and the third one was made by omitting both putative miRNA target sites in the 3′-UTR sequence of PCSK7. In the miR-409-3p mutant construct, a putative miRNA target site was deleted from the 3′-UTR sequence.
The HEK293T cells were co-transfected through the application of the wild-type psiCHECK-2, the wild-type PCSK7 3′-UTR, the mutant PCSK7 3′-UTR, and the miR-overexpressing vectors so that the direct interactions of the nominated miRNAs with PCSK7 3′-UTR could be investigated. In brief, 150 ng of the wild-type or mutated 3′-UTR constructs and 300 ng of the miRNA-expressing vectors were co-transfected in HEK293T-cultured 48-well plates using FuGENE™ (Invitrogen, USA). Additionally, the psiCHECK-2 and pEGFP-C1 mock vectors were transfected and utilized as controls for luciferase assay and transfection, respectively. Transfection efficiency was monitored by fluorescent microscopy (Nikon TE2000S, Japan) 36 hours following the procedure.
The PsiCHECK-2 reporter construct plasmid contained the Renilla luciferase gene upstream of PCSK7 3′-UTR and an independent firefly luciferase gene as an internal control for normalization. Forty-eight hours after HEK293T co-transfection, the luciferase reporter assay was carried out employing the Dual-Luciferase Reporter Assay System (Promega, USA) with a luminometer (Titertek-Berthold, Germany) in accordance with the manufacturer's protocol. Each sample was performed in triplicate, and the experiment was repeated at least three biological times. In short, a lysis buffer was added to each well after the removal of the media of the cell. Then, LARII Reagent was added, and after 20 minutes, the firefly luciferase activity was measured as a control. Afterward, Renilla activity was determined using Stop & Glo Reagent. The relative luciferase activity was calculated using the following formula: ΔFold Activity of Luciferase (Renilla/Firefly)=Average Renilla/Firefly from Samples A/B.
A luciferase reporter assay further confirmed that miR-125a-5p, miR-143-3p, and miR-409-3p directly targeted the 3′-UTR of the PCSK7 transcript since the negative regulatory effect was lost upon the deletion of the miRNA target sites (miR-125a-5p, miR-143-3p, and miR-409-3p) on the 3′-UTR of the PCSK7 reporter plasmid (FIGS. 28A-B). In this regard, three different mutated miR plasmids were constructed for both miR-125a-5p and miR-143-3p. Single-target sites of each miRNA were omitted individually in two separate plasmids, and the two putative binding sites of the miRNAs were deleted in the other plasmid.
For orientation: A reporter such as luciferase makes a cellular process visible.

Data set [2] concerns the target T1, secretory short N-terminal fragment of apoB (s-apoB; aa 1-965), P04114.
T1 chain: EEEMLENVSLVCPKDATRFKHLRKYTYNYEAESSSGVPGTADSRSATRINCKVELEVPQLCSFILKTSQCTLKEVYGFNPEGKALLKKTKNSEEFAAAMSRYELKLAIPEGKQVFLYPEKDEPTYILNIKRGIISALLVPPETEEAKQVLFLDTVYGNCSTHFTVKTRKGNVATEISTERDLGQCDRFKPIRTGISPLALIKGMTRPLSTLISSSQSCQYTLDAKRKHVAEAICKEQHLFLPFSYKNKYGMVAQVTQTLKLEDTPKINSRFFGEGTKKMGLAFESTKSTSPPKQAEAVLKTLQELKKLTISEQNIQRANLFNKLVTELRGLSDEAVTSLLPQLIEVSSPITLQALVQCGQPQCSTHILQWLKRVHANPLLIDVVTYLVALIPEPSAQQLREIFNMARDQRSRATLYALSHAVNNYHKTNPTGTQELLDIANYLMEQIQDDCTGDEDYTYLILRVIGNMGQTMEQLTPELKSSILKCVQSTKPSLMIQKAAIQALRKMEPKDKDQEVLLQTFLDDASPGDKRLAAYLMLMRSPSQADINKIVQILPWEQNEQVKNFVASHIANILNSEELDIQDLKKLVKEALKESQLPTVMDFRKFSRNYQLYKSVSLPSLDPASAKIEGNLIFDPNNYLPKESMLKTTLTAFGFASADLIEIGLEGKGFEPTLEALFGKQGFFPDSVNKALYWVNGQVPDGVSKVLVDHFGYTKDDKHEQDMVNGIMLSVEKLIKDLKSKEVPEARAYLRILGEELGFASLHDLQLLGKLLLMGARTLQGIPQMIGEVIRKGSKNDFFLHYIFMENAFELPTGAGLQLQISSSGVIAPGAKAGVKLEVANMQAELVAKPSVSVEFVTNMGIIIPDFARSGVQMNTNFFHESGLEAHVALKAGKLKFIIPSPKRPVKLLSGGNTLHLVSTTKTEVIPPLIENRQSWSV

As for “miR-143-3p: miRNA with two target sites in the PCSK7 3′-UTR, overexpressed from precursor vector (UGAGAUGAAGCACUGUAGCUC; miRNA expressed from a precursor vector, further chemistry not given here)”, the relative luciferase activity entry in data set [1] (Mut-a, deletion of the first target site) is given as “considerably diminished”; in data set [1] (Mut-a,b, deletion of both miRNA target sites), “no significant effect”; in data set [1] (Mut-b, deletion of the second target site) it was “considerably diminished”.

For “miR-409-3p: miRNA with one target site in the PCSK7 3′-UTR, overexpressed from precursor vector (GAAUGUUGCUCGGUGAACCCCU; miRNA expressed from a precursor vector, further chemistry not given here)”, the luciferase activity entry in data set [1] (only putative target site of miR-409-3p absent) is given as “did not lead to a reduction”.

B1: rat PC7 soluble-KDEL variant (retained in the ER) (protein)
chain: SIHFNDPKYPQQWHLNNRRSPGRDINVTGVWERNVTGRGVTVVVVDDGVEHTVQDIAPNYSPEGSYDLNSNDPDPMPHPDEENGNHHGTRCAGEIAAVPNNSFCAVGVAYGSRIAGIRVLDGPLTDSMEAVAFNKHYQINDIYSCSWGPDDDGKTVDGPHQLGKAALQHGVMAGRQGFGSIFVVASGNGGQHNDNCNYDGYANSIYTVTIGAVDEEGRMPFYAEECASMLAVTFSGGDKMLRSIVTTDWDLQKGTGCTEGHTGTSAAAPLAAGMIALMLQVRPCLTWRDVQHIIVFTATQYEDHRADWLTNEAGFSHSHQHGFGLLNAWRLVNAAKIWTSVPYLASYVSPMLKENKAVPRSPHSLEVLWNVSRTDLEMSGLKTLEHVAVTVSITHPRRGSLELKLFCPSGMMSLIGAPRSMDSDPNGFNDWTFSTVRCWGERARGVYRLVIRDVGDEPLQVGILQQWQLTLYGSTWSPVDIKDRQSLLESAMSGKYLHDDFTLPCPPGLKIPEEDGYSITPNTLKTKDEL
For the molecule B1, the “secretion of s-apoB (apo21) compared to rPC7, Western blot” value in data set [2] is recorded as “rPC7-KDEL significantly reduced (~30%) s-apoB (apo21) secretion compared to rPC7”.

B2: rat PC7 (protein)
chain: SIHFNDPKYPQQWHLNNRRSPGRDINVTGVWERNVTGRGVTVVVVDDGVEHTVQDIAPNYSPEGSYDLNSNDPDPMPHPDEENGNHHGTRCAGEIAAVPNNSFCAVGVAYGSRIAGIRVLDGPLTDSMEAVAFNKHYQINDIYSCSWGPDDDGKTVDGPHQLGKAALQHGVMAGRQGFGSIFVVASGNGGQHNDNCNYDGYANSIYTVTIGAVDEEGRMPFYAEECASMLAVTFSGGDKMLRSIVTTDWDLQKGTGCTEGHTGTSAAAPLAAGMIALMLQVRPCLTWRDVQHIIVFTATQYEDHRADWLTNEAGFSHSHQHGFGLLNAWRLVNAAKIWTSVPYLASYVSPMLKENKAVPRSPHSLEVLWNVSRTDLEMSGLKTLEHVAVTVSITHPRRGSLELKLFCPSGMMSLIGAPRSMDSDPNGFNDWTFSTVRCWGERARGVYRLVIRDVGDEPLQVGILQQWQLTLYGSTWSPVDIKDRQSLLESAMSGKYLHDDFTLPCPPGLKIPEEDGYSITPNTLKTLVLVGCFSVFWTIYYMLEVCLSQRSKASTHGCRRGCCPWPPQSQNSKEVGTALESMPLCSSKDLDGVDSEHGDCTTASSLLAPELLGEADWSLSQNSKSDLDCPPHQPPDLKDGQIC
B2: in data set [2], the “secretion of s-apoB (apo21), Western blot” value is recorded as “rat PC7 (rPC7) also enhanced by ~2-fold the secretion of s-apoB (apo21)”.

B3: human PC7 (overexpressed in IHH cells) (protein)
chain: SVHFNDPKYPQQWHLNNRRSPGRDINVTGVWERNVTGRGVTVVVVDDGVEHTIQDIAPNYSPEGSYDLNSNDPDPMPHPDVENGNHHGTRCAGEIAAVPNNSFCAVGVAYGSRIAGIRVLDGPLTDSMEAVAFNKHYQINDIYSCSWGPDDDGKTVDGPHQLGKAALQHGVIAGRQGFGSIFVVASGNGGQHNDNCNYDGYANSIYTVTIGAVDEEGRMPFYAEECASMLAVTFSGGDKMLRSIVTTDWDLQKGTGCTEGHTGTSAAAPLAAGMIALMLQVRPCLTWRDVQHIIVFTATRYEDRRAEWVTNEAGFSHSHQHGFGLLNAWRLVNAAKIWTSVPYLASYVSPVLKENKAIPQSPRSLEVLWNVSRMDLEMSGLKTLEHVAVTVSITHPRRGSLELKLFCPSGMMSLIGAPRSMDSDPNGFNDWTFSTVRCWGERARGTYRLVIRDVGDESFQVGILRQWQLTLYGSVWSAVDIRDRQRLLESAMSGKYLHDDFALPCPPGLKIPEEDGYTITPNTLKTLVLVGCFTVFWTVYYMLEVYLSQRNVASNQVCRSGPCHWPHRSRKAKEEGTELESVPLCSSKDPDEVETESRGPPTTSDLLAPDLLEQGDWSLSQNKSALDCPHQHLDVPHGKEEQIC
Consider B3, for which the “secretion of s-apoB (apoB21) into the medium, Western blot” value in data set [2] is given as “overexpression of PC7 enhanced the secretion of s-apoB (apoB21)”.
